Data on one compound can be found in patent publication EP3551232B1, “STABLE F-DOPA FORMULATIONS AND USES THEREOF” (priority 2016, dated 2018).

A short description of data set [1]: enantioselective HPLC (optical stability, racemization). It is filed as physicochemical. The note with it: 4 mg/mL, 24 h at both 25 and 45 °C, sterile perfusion solution at pH 6.0.
Experimental: The HPLC system used to check the chemical stability of F-DOPA, related to its possible oxidation and racemization, consisted of a Waters Associates (Milford, MA, USA) model 1515 equipped with an isocratic pump, a Waters 2487 UV-vis detector, and the Breeze Software to analyze the chromatographic data. The HPLC analysis were performed on a reverse-phase column (Agilent Zorbax SB-Aq C8; 150 x 4.6 mm - 5 µm) kept at room temperature using detection wavelengths of 200 and 280 nm. The mobile phase consisted of 6.9 g/L solution of sodium dihydrogen phosphate adjusted to pH 2.4 with a 4.8 g/L solution of phosphoric acid, and the flow rate was 1 mL/min. The standard injection volume was 20 µL. […] To evaluate optical stability of F-DOPA, chromatograms were recorded on a teicoplanin aglycone-based chiral stationary phase (250 × 4.6 mm, particle size 5 µm, pore size 8 nm) CHIROBIOTIC (ASTEC, Whippany, NJ, USA), by eluting with a mixture 80% acetonitrile and 20% water, at a flow rate of 1 mL/min and a temperature of 25 °C.
Data set [2] is described as follows: cell viability assay, fiber counting (mortality rate). The note with it: male, C57BL6, mouse. The protocol: (§1) Single fibers were isolated from the Flexor Digitorum Brevis (FDB) muscles dissected from male C57BL6 mice (N° of mice = 3). Isolated fibers were obtained by incubating the FDB muscles with Dulbecco's modified Eagle's medium (DMEM+) solution composed by IX antibiotics (1%), L-glutamine (1%), FBS (10%) (EuroClone, S.p.A. Milan, Italy) enriched with 0.3 mg/ml collagenase type XI-S (Sigma Chemical Co.).
(§2) For "in vitro" cell viability tests, the F-DOPA powder was directly solubilized in the complete cell culture medium (DMEM+). Stock solutions of ND1, ND2 and ND3 formulations were prepared at the concentration of 10 mg/ml. Microliter amounts of the stock solutions were then added to DMEM as needed, to obtain the final concentrations.
(§3) The fibers were plated, counted under a microscope, and incubated for 3h with increasing concentrations of F-DOPA, ND1, ND2 and ND3 formulations and an imaging analysis was then performed. At the end of the incubation time, the cytotoxicity expressed as mortality rate with respect to the control condition was evaluated by counting the fibers before and after the incubation period.
(§4) The mortality rate of the fibers and cells was calculated by the following equation: [(Ntreated/NCTRL)×100]−100 [formula] where Ntreated is the number of the treated cells and NCTRL is the number of untreated cells.
(§5) The following three parametric logistic function was used to fit the concentrationmortality data of different F-DOPA formulations: percentage change of the mortality rate(%) = Emax ((1+EC50/DOSE))^slope [formula] where Emax, is the maximal drug effect; EC50, is the concentration needed to cause the 50% percent change of the maximal effect; DOSE, is the applied concentration; slope, is the hill slope of the curve (SIGMAPlot 10.0, Systat Software, Inc.).

Data set [3] concerns mouse skeletal muscle fibers. The description is as above. As to conditions: Mus musculus. The procedure:
as §1, §2, §3, §4, §5

Data set [4] can be described thus: amount of F-DOPA dissolved in the formulation compositions. Type of data set: physicochemical. The note with it: in the ND1, ND2 and ND3 compositions. The procedure:
Optimum stability for F-DOPA in aqueous formulations is achieved by maintaining the pH at acidic values, by excluding oxygen and incorporating in the formula a chelating agent for metal ion initiators of free-radical oxidation reactions. […] In order to formulate F-DOPA at the optimum acidic pH range, the appropriate buffer was selected. Lactate buffer (1 mM, pH 5.0) was chosen to formulate the parenteral solution, firstly because lactic acid is currently used in intravenous solutions and is already present in commercial formulation and, secondly, because this solution has a pH value compatible with the direct infusion avoiding or minimizing the pain at the injection site. Finally, common methods for decelerating the initiation step require eliminating initiators and catalysts from the formulation. Metals ions can be sequestered by the use of chelators, such as EDTA, citric acid and tartaric acid. […] For comparison purposes the ND3 formulation, having the same commercially available formulation "master formula", was also prepared by solubilizing F-DOPA in an aqueous solution of 17.5 mM acetic acid (1.05 mg/mL, pH = 3.1). In order to mimic the commercial formulation, immediately before its use the pH of ND3 was adjusted to a higher pH value (measured pH = 7.2) by the addition of 100 µL per mL of a sterile solution of 1 M (84 mg/mL) sodium bicarbonate. […]

Data set [5] in a line: UV-Vis absorbance stability in sterile physiological solution. It is filed as physicochemical. The source says: This behavior was further supported by monitoring the change in UV-Vis absorbance of a pH 6.4 sterile physiological solution containing F-DOPA. […]
A short description of data set [6]: in situ FT-IR monitoring of F-DOPA degradation in aqueous solution. It is filed as physicochemical. The protocol:
Aimed at better understanding the nature of the F-DOPA degradation products, the progress of the oxidation of F-DOPA was investigated by in situ FT-IR experiments at pH 8.0 and 5.15 at 25 °C (Figure 3).
Nevertheless, an overlapping of the carbonyl and carboxyl groups in the range 1670-1650 cm^-1 of the postulated o-quinone derivatives (Scheme 1) should occur in aqueous solution. However, similar o-quinone species show typical bands at 1660, 1480 and 1380 cm^-1, and are known to be very unstable turning black the solution upon standing. […] Thus, in situ IR experiments confirm the long-time stability of F-DOPA in acidic conditions (pH < 5.15) and the high propensity to undergo degradation under basic conditions. The pH-rate profile was carried out in order to obtain kinetic data.
The degradation pathway and the progress of the F-DOPA oxidation in aqueous solutions were further investigated by in situ FT-IR experiments at pH 8.0 and 5.15 at 25 °C. The experiments were carried out using a Mettler-Toledo ReactIR 4000 and Ic15 instruments equipped with a diamond-tipped (DiComp®) probe (Spectra elaborated with ConcIR® software), monitoring the C=O stretching of the F-DOPA and following new absorptions likely related to oxidized products (Castagnolo, D. et al. 2015; Mansueto, R. et al 2014). In a Schlenk tube equipped with a stirring bar and the React-IR probe, a 0.02 M F-DOPA aqueous solution at pH 5.15 was introduced via syringe at room temperature. Reference spectra for the pure solvent and F-DOPA were collected separately before starting the experiments. The solution was stirred for 10 min, to verify the stability of the readout, and spectra collected every 30 sec. The solution was then stirred for 24 h and constantly monitored by IR spectroscopy.

The term mortality denotes the share of the test organisms that died. Read a low mortality as a weak lethal effect. In general, EC50 refers to the concentration at which the effect is half-maximal. High values mean a need for much substance, low ones an effect from little substance. Turning to `N[C@@H](Cc1cc(O)c(O)cc1F)C(=O)O` [F-DOPA, (2S)-2-Amino-3-(6-fluoro-3,4-dihydroxyphenyl)propanoic acid], the racemization entry in data set [1] is “no racemization occurs”. In data set [2], this compound came in with a mortality at 3 h, 0.02 mg/ml below 15% and a mortality at 3 h, 0.05 mg/ml above 50%. Further, in data set [3], the Emax worked out at 100%. In data set [3] (3 h), it took 185 µM to reach a half-maximal effect (EC50). In addition, the “F-DOPA dissolved per mL” value in data set [4] came to 10 mg/mL. Further, the “decrease in F-DOPA initial concentration” value in data set [5] (pH 6.4, degassed sterile 0.9% NaCl, 1 to 4 mg/mL, 25 or 45 °C, 6 h, absorbance at 298 nm) is “less than 5%”. Besides, the colour of sample result in data set [5] (pH 6.4, sterile 0.9% NaCl, after 24 h incubation) was “pale pink color”. In addition, in data set [6] (buffer at pH = 8.0, within 2 h, 25 °C), the “loss of vC=O absorbance” value is reported as 10%. For the same compound, the “additional peaks in the range 1800-1200 cm^-1 (FT-IR)” value in data set [6] (pH 5.15, after 16 h, 25 °C) was “no additional peaks”. The “appearance of the transparent aqueous solution” value in data set [6] (stirring at pH = 8.0 for 24 h) is given as “turned to black”.
